From ChEMBL document CHEMBL6074642, “Natural and Bioinspired Lipidic Alkynylcarbinols as Leishmanicidal, Antiplasmodial, Trypanocidal, Fungicidal, Antibacterial, and Antimycobacterial Agents” (J Nat Prod, 2024)
In brackets after ≈: the same amount, converted by molar mass.

What was measured:
[1] = test system: Escherichia coli; assay: Antibacterial activity against Escherichia coli DC2; format: functional
[2] = test system: Pseudomonas aeruginosa; assay: Antibacterial activity against Pseudomonas aeruginosa ATCC 15442 […] assessed as reduction in bacterial growth after 18 to 20 hrs by CLSI-based broth microdilution assay; format: functional; conditions: time 18-20 hrs
[3] = test system: Staphylococcus aureus; assay: Antibacterial activity against methicillin-resistant Staphylococcus aureus K147 assessed as reduction in bacterial growth; format: functional
[4] = test system: Staphylococcus aureus; assay: Antibacterial activity against methicillin-resistant Staphylococcus aureus SAP0017 assessed as reduction in bacterial growth; format: functional
[5] = test system: Bacillus subtilis; assay: Antibacterial activity against Bacillus subtilis NBRC 3513; format: functional
[6] = test system: Mycobacterium tuberculosis; assay: Antimycobacterial activity against Mycobacterium tuberculosis H37Rv; format: functional
[7] = test system: Mycobacterium tuberculosis; assay: Antimycobacterial activity against Mycobacterium tuberculosis Erdman; format: functional
[8] = test system: Trypanosoma brucei; assay: Antitrypanosomal activity against Trypanosoma brucei assessed as inhibition of parasite growth incubated for 72 hrs by resazurin reagent fluorimetric analysis; format: functional, organism-based
[9] = test system: Escherichia coli; assay: Antibacterial activity against Escherichia coli DC2 assessed as reduction in bacterial growth; format: functional
[10] = test system: Staphylococcus aureus; assay: Antimicrobial activity against methicillin-sensitive Staphylococcus aureus K147 assessed as reduction in microbial growth; format: functional
[11] = test system: Staphylococcus aureus; assay: Antibacterial activity against Staphylococcus aureus SAP0017 assessed as reduction in bacterial growth; format: functional
[12] = test system: Bacillus subtilis; assay: Antibacterial activity against Bacillus subtilis assessed as reduction in microbial growth; format: functional
[13] = test system: Mycobacterium tuberculosis; assay: Antimycobacterial activity against Mycobacterium tuberculosis Erdman ATCC 35801; format: functional
[14] = test system: Leishmania amazonensis; assay: Antileishmanial activity against leishmania amazonensis promastigotes MHOM/BR/77/LTB0016 assessed as assessed as parasite growth inhibition incubated for 72 hrs by Alamar Blue assay; format: functional, organism-based; conditions: MHOM/BR/77/LTB0016, 72 h
[15] = test system: Leishmania mexicana; assay: Antileishmanial activity against Leishmania mexicana promastigotes; format: functional, organism-based
[16] = test system: Leishmania mexicana; assay: Antileishmanial activity against Leishmania mexicana amastigotes; format: functional, organism-based
[17] = test system: Pseudomonas aeruginosa; assay: Antibacterial activity against Pseudomonas aeruginosa assessed as reduction in bacterial growth incubated for 24 hrs by broth microdilution method; format: functional, organism-based
[18] = test system: Mycobacterium intracellulare; assay: Antibacterial activity against Mycobacterium intracellulare; format: functional, organism-based
[19] = test system: Leishmania donovani; assay: Antileishmanial activity against Leishmania donovani amastigotes infected in J774 macrophage assessed as inhibition of parasite growth incubated for 48 hrs by luciferase assay; format: functional, organism-based; conditions: J774, 48 h
[20] = test system: Leishmania donovani; assay: Antileishmanial activity against amastigote form of Leishmania donovani infected in BALB/c mouse assessed as inhibition of parasite growth in liver at 10 mg/kg, po measured for 7 days by geimsa staining based analysis relative to control; format: functional; set-up: scale not given: the % may be the effect or the level left; conditions: time 7 day
[21] = test system: Phytophthora capsici; assay: Antifungal activity against Phytophthora capsici; format: functional, organism-based
[22] = test system: Bacillus subtilis; assay: Antibacterial activity against Bacillus subtilis PY79 assessed as reduction in bacterial growth; format: functional, organism-based
[23] = test system: Bipolaris sorokiniana; assay: Antifungal activity against Cochliobolus sativus; format: functional, organism-based
[24] = test system: Colletotrichum gloeosporioides; assay: Antifungal activity against Colletotrichum gloeosporioides; format: functional, organism-based
[25] = test system: Alternaria kikuchiana; assay: Antifungal activity against Alternaria kikuchiana; format: functional, organism-based
[26] = test system: Mycobacterium tuberculosis; assay: Antimycobacterial activity against Mycobacterium tuberculosis H37Ra; format: functional, organism-based
[27] = test system: Streptococcus pyogenes; assay: Antibacterial activity against Streptococcus pyogenes assessed as bacterial growth inhibition; format: functional
[28] = test system: Bacillus subtilis; assay: Antibacterial activity against Bacillus subtilis; format: functional
[29] = test system: Mycobacterium tuberculosis; assay: Antimycobacterial activity against Mycobacterium tuberculosis H37Rv assessed as inhibition of bacterial growth by MABA assay; format: functional
[30] = test system: Mycobacterium tuberculosis; assay: Antimycobacterial activity against Mycobacterium tuberculosis Erdman assessed as inhibition of bacterial growth by MABA assay; format: functional
[31] = test system: Plasmodium falciparum; assay: Antiparasitic activity against Plasmodium falciparum K1 assessed as reduction in parasite growth; format: functional, organism-based

`C=CC(O)C#CC#CC(O)/C=C\C(O)CCCCCC` (centres undefined) was tested, and the MIC [1] was 200 µg/mL (≈ 724 µM), the MIC [2] was 200 µg/mL (≈ 724 µM) and the MIC [3] was 200 µg/mL (≈ 724 µM). It also gave an MIC [4] of 200 µg/mL (≈ 724 µM) and an MIC [5] of 200 µg/mL (≈ 724 µM).

`C=CC(O)C#CC#CC(O)/C=C\CCCCCCCCOC(C)=O` (centres undefined) was tested, and the MIC [6] was 25 µg/mL (≈ 75.2 µM) and the MIC [7] was 1.4 µg/mL (≈ 4.21 µM).

`C=CC(C#CC#CC(O)CCCCCCCCC)OC(C)=O` (centres undefined) showed an IC50 [8] of 460 nM.

`C=C[C@H](O)C#CC#C[C@@H](O)/C=C\CCCCCCC` showed an MIC [9] of 2.5 µg/mL (≈ 9.6 µM), an MIC [10] of 12 µg/mL and an MIC [11] of 25 µg/mL (≈ 96 µM). The MIC [12] was 12 µg/mL, the MIC [6] was 27 µg/mL (≈ 104 µM) and the MIC [7] was 6 µg/mL (≈ 23 µM). It also gave an MIC [13] of 6.2 µg/mL (≈ 23.8 µM).

`C=CC(O)C#CC#CC(O)/C=C\CCCCCCC` (centres undefined) gave an IC50 [14] of 5700 nM.

In the case of `C=CCCCCC/C=C\CC#CC#C[C@@H](O)C=C`, the IC50 [15] is reported as 0.28 µg/mL (≈ 1.16 µM) and the IC50 [16] is reported as 0.18 µg/mL (≈ 0.743 µM).

`CCCCCC/C=C\CCCCCCCCC[C@@H](O)C#CC#CCO` was tested, and the IC50 [17] was 2600 nM and the IC50 [18] was 23000 nM.

For `C=C[C@@H](C#CC#C[C@@H](CCCCCCCCC)NC(=O)c1ccccc1)OC(C)=O`, the IC50 [19] was 30 nM and the Activity [20] was 26%.

`C=C[C@H](O)C#CC#C[C@@H](O)c1cccs1` showed an EC50 [21] of 3.6 µg/mL (≈ 16.5 µM).

`C#CC(O)/C=C/C(O)CCCC(O)CC#CC(O)C#CCCCCC(=O)CCCCC/C=C/C(O)CCCCCCCCCCCCC(O)C(O)C(O)C#CC(=O)O` (centres undefined) was tested, and the IC50 [22] was 12 µg/mL (≈ 14.8 µM).

`C=C[C@H](O)C#CC#CC/C=C/CCCCCCCC` gave an EC50 [23] of 9 µg/mL (≈ 34.8 µM), an EC50 [24] of 46 µg/mL (≈ 178 µM) and an EC50 [25] of 41 µg/mL (≈ 159 µM).

`CCCC/C=C/C#CC#CC(O)CCCCCCC(=O)O` (centres undefined) showed an IC50 [26] of 25 µg/mL (≈ 86.1 µM).

Work on `C=C[C@@H](C#CC#C[C@@H](CCCCCCCCC)NS(C)(=O)=O)OC(C)=O` yielded an IC50 [19] of 50 nM, an MIC [27] of 8 µM (≈ 3.05 µg/mL) and an MIC [28] of 4 µM (≈ 1.53 µg/mL).

`C=CC(O)C#CC#CC(O)C1OC1CCCCCCC` (centres undefined) was tested, and the MIC [29] was greater than 60 µg/mL and the MIC [30] was greater than 60 µg/mL.

`CC(C)CCCC/C=C\CCCCCCCCC[C@@H](O)C#CC#CCO` showed an IC50 [17] of 1700 nM and an IC50 [18] of 9900 nM.

`C=C[C@H](C#CC#C[C@@H](O)CCCCCCCCC)OC(C)=O` was tested, and the IC50 [19] was greater than 10000 nM and the IC50 [31] was 8.15 µg/mL (≈ 26.8 µM).

Work on `C=C[C@H](C#CC#C[C@H](O)CCCCCCCCC)OC(C)=O` yielded an IC50 [19] greater than 10000 nM and an IC50 [31] of 8.07 µg/mL (≈ 26.5 µM).

With `C=C[C@@H](O)C#CC#C/C=C/[C@H](O)CCCCCCCC` the EC50 [23] was 37 µg/mL (≈ 135 µM).

`C=C[C@H](O)C#CC#C[C@@H](CCCCCCCCC)NCCCC` was tested, and the IC50 [19] was 3 nM.

With `C#CC(O)/C=C/C(O)CCCC(O)CC#CC(O)C#CCCCC(O)/C=C/CCCCCC(=O)CCCCCCCCCCCCCC(O)C(O)C(O)C#CC(=O)O` (centres undefined) the IC50 [22] was 12 µg/mL (≈ 14.8 µM).

`C=CC(O)C#CC#C/C=C/C(O)CCCCCCC` (centres undefined) gave an IC50 [14] of 5800 nM.

`CCCCCCCCCCCCC1CC1CCCC(O)C#CC#CCO` (centres undefined) was tested, and the IC50 [17] was 1800 nM and the IC50 [18] was 14000 nM.

`C=C[C@@H](O)C#CC#CC/C=C/CCCCCCCC` gave an EC50 [25] of 51 µg/mL (≈ 197 µM).

`CCCCCCCC/C=C\CCCCCCCCC[C@@H](O)C#CC#CCO` was tested, and the IC50 [17] was 2900 nM and the IC50 [18] was 17000 nM.

`C#CC(O)/C=C/C(O)CCCC(O)CC#CC(O)C#CC(O)CCCC(=O)CCCCC/C=C/C(O)CCCCCCCCCCCCCC(O)C(O)C#CC(=O)O` (centres undefined) showed an IC50 [22] of 12 µg/mL (≈ 14.8 µM).
